The values that follow are results of earlier work, collected in patent publication US11154586B2, “Treating sexual dysfunction” (Olive Therapeutics, LLC, priority 2016, dated 2021).

For series [1] the following is noted: intranasal, men or couples, single agent.

On to `CC[C@H](C)[C@@H]1NC(=O)[C@H](Cc2ccc(O)cc2)NC(=O)[C@@H](N)CSSC[C@@H](C(=O)N2CCC[C@H]2C(=O)N[C@@H](CC(C)C)C(=O)NCC(N)=O)NC(=O)[C@H](CC(N)=O)NC(=O)[C@H](CCC(N)=O)NC1=O` [oxytocin], for which the “Effect on sexual function, Case 1” value (person, 2 hours after intranasal 16 IU, on progesterone only pill, repeated 2 days later) is “increased sexual desire, stronger uterine contractions during orgasm, and greater satisfaction”. Besides, the “Effect on sexual function, Case 2” value (person, intranasal, off-label for social anxiety, apparently also on lisdexamfetamine) is reported as “broad spectrum enhancement of the patient's sexual function”. Further, the “Effect on anorgasmia, Case 3” value (person, intranasal, earlier dopamine agonist and growth hormone) is “sustained restoration of their ability to achieve orgasm”. For the same molecule, the “Effect on sexual function, Case 1, third administration” value (same person, 2 weeks later, after switch to barrier method) is reported as “did not produce the same sexual enhancement”. Further, the “Effect on biological measures of sexual functioning” value in series [1] is recorded as “does not alter biological measures of sexual functioning”.
